Experimental data as given in paper PMC10817917, “Alkyl deoxyglycoside-polymyxin combinations against critical priority carbapenem-resistant gram-negative bacteria” (Scientific Reports, 2024).
Entries after “also recorded” stand apart in the source; their conditions may differ. Read-outs that look alike come from different tables or passages of the source.

Legend:
[1] = tested on: K. pneumoniae CQ4921; assay: Broth microdilution MIC/MBC, glycosides with or without polymyxins; assay type: cell-based, Klebsiella pneumoniae; details: for MIC: Klebsiella pneumoniae, CQ4921
[2] = tested on: E. cloacae CQ1941; assay: as above; assay type: cell-based; details: for MIC: Enterobacter cloacae, CQ1941
[3] = tested on: K. pneumoniae CQ1947; assay: Broth microdilution MIC, glycosides with or without polymyxins; assay type: cell-based, Klebsiella pneumoniae; details: for MIC: Klebsiella pneumoniae, CQ1947
[4] = tested on: P. aeruginosa CQ4924; assay: as above; assay type: cell-based, Pseudomonas aeruginosa; details: for MIC: Pseudomonas aeruginosa, CQ4924
[5] = PE vs phosphatidylcholine (PC); cited from earlier work
[6] = alone, read-out: MICA (MIC of each compound individually)
[7] = combination with the lowest FICI
[8] = compound + colistin, lowest FICI

Structure (SMILES): CCCCCCCCCCCCO[C@@H]1C[C@@H](O)[C@H](O)[C@@H](CO)O1 [Compound 4, dodecyl 2-deoxy-α-D-arabino-hexopyranoside]
- MIC of colistin in combination with the compound ([1]; Cpd conc. 0.4 μg/mL, strain C): 0.5 µg/mL
- MIC of colistin in combination with the compound ([1]; Cpd conc. 0.8 μg/mL, strain C): 0.5 µg/mL
- MIC of colistin in combination with the compound ([1]; Cpd conc. 3.125 μg/mL, strain C): 0.5 µg/mL
- MIC of colistin in combination with the compound ([1]; Cpd conc. 6.25 μg/mL, strain C): 0.5 µg/mL
- MIC of colistin in combination with the compound ([1]; Cpd conc. 12.5 μg/mL, strain C): 0.5 µg/mL
- MIC of colistin in combination with the compound ([1]; Cpd conc. […], strain C): 0.5 µg/mL
- MIC ([1]; agent alone, no adjuvant (polymyxin conc. 0), strain C, read-out: MIC): > 100 µg/mL
- MIC [1, 6]: > 100 µg/mL
- MIC of compound in combination with PMB ([1]; PMB 0.25 μg/mL, strain C): > 100 µg/mL
- MIC of compound in combination with PMB ([1]; PMB 0.5 μg/mL, strain C): 1.6 µg/mL
- MIC of compound in combination with colistin ([1]; colistin 0.25 μg/mL, strain C): > 100 µg/mL
- MIC of compound in combination with colistin ([1]; colistin 0.5 μg/mL, strain C): ≤ 0.1 µg/mL
- MICA(A + B) (MIC of compound in combination with colistin) [1, 7]: 0.4 µg/mL
- MICB(A + B) (MIC of colistin in combination with compound) [1, 7]: 0.5 µg/mL
- Interpretation (of FICI) ([1]; compound + colistin): Indifferent (1.0 to 4.0 were indifferent)
- FICI [1, 8]: 1.002
- MIC of colistin in combination with the compound ([2]; Cpd conc. 0.4 μg/mL, strain D): 0.5 µg/mL
- MIC of colistin in combination with the compound ([2]; Cpd conc. 0.8 μg/mL, strain D): 0.5 µg/mL
- MIC of colistin in combination with the compound ([2]; Cpd conc. 3.125 μg/mL, strain D): 0.5 µg/mL
- MIC of colistin in combination with the compound ([2]; Cpd conc. 6.25 μg/mL, strain D): 0.5 µg/mL
- MIC of colistin in combination with the compound ([2]; Cpd conc. 12.5 μg/mL, strain D): 0.5 µg/mL
- MIC of colistin in combination with the compound ([2]; Cpd conc. […], strain D): 0.5 µg/mL
- MIC ([2]; agent alone, no adjuvant (polymyxin conc. 0), strain D, read-out: MIC): > 100 µg/mL
- MIC [2, 6]: > 100 µg/mL
- MIC of compound in combination with PMB ([2]; PMB 0.25 μg/mL, strain D): > 100 µg/mL
- MIC of compound in combination with PMB ([2]; PMB 0.5 μg/mL, strain D): ≤ 0.1 µg/mL
- MIC of compound in combination with colistin ([2]; colistin 0.25 μg/mL, strain D): > 100 µg/mL
- MIC of compound in combination with colistin ([2]; colistin 0.5 μg/mL, strain D): ≤ 0.1 µg/mL
- MICA(A + B) (MIC of compound in combination with colistin) [2, 7]: 0.4 µg/mL
- MICB(A + B) (MIC of colistin in combination with compound) [2, 7]: 0.5 µg/mL
- Interpretation (of FICI) ([2]; compound + colistin): Indifferent (1.0 to 4.0 were indifferent)
- FICI [2, 8]: 1.002
- MIC of colistin in combination with the compound ([3]; Cpd conc. 0.4 μg/mL, strain F): 0.5 µg/mL
- MIC of colistin in combination with the compound ([3]; Cpd conc. 0.8 μg/mL, strain F): 0.5 µg/mL
- MIC of colistin in combination with the compound ([3]; Cpd conc. 3.125 μg/mL, strain F): 0.5 µg/mL
- MIC of colistin in combination with the compound ([3]; Cpd conc. 6.25 μg/mL, strain F): 0.5 µg/mL
- MIC of colistin in combination with the compound ([3]; Cpd conc. 12.5 μg/mL, strain F): 0.5 µg/mL
- MIC of colistin in combination with the compound ([3]; Cpd conc. […], strain F): 0.5 µg/mL
- MIC ([3]; agent alone, no adjuvant (polymyxin conc. 0), strain F, read-out: MIC): > 100 µg/mL
- MIC [3, 6]: > 100 µg/mL
- MIC of compound in combination with PMB ([3]; PMB 0.25 μg/mL, strain F): > 100 µg/mL
- MIC of compound in combination with PMB ([3]; PMB 0.5 μg/mL, strain F): > 100 µg/mL
- MIC of compound in combination with colistin ([3]; colistin 0.25 μg/mL, strain F): > 100 µg/mL
- MIC of compound in combination with colistin ([3]; colistin 0.5 μg/mL, strain F): ≤ 0.1 µg/mL
- MICA(A + B) (MIC of compound in combination with colistin) [3, 7]: 0.4 µg/mL
- MICB(A + B) (MIC of colistin in combination with compound) [3, 7]: 0.5 µg/mL
- Interpretation (of FICI) ([3]; compound + colistin): Indifferent (1.0 to 4.0 were indifferent)
- FICI [3, 8]: 1.002
- MIC of colistin in combination with the compound ([4]; Cpd conc. 0.4 μg/mL, strain H): > 0.5 µg/mL
- MIC of colistin in combination with the compound ([4]; Cpd conc. 0.8 μg/mL, strain H): > 0.5 µg/mL
- MIC of colistin in combination with the compound ([4]; Cpd conc. 3.125 μg/mL, strain H): > 0.5 µg/mL
- MIC of colistin in combination with the compound ([4]; Cpd conc. 6.25 μg/mL, strain H): > 0.5 µg/mL
- MIC of colistin in combination with the compound ([4]; Cpd conc. 12.5 μg/mL, strain H): > 0.5 µg/mL
- MIC of colistin in combination with the compound ([4]; Cpd conc. […], strain H): > 0.5 µg/mL
- MIC of compound in combination with PMB ([4]; PMB 0.25 μg/mL, strain H): > 100 µg/mL
- MIC of compound in combination with PMB ([4]; PMB 0.5 μg/mL, strain H): > 100 µg/mL
- MIC ([4]; agent alone, no adjuvant (polymyxin conc. 0), strain H, read-out: MIC): > 100 µg/mL
- MIC [4, 6]: > 100 µg/mL
- MIC of compound in combination with colistin ([4]; colistin 0.25 μg/mL, strain H): > 100 µg/mL
- interaction with phosphatidylethanolamine (PE) [5]: Non PE-binder; also recorded: limited affinity towards PE
